Like-named read-outs stand apart in the source and are kept apart here.
Target: T1, F508delCFTR (Homo sapiens, UniProt P13569, DEL508-508)
T1 construct: expressed in transfected cells; host or cells: CFBE41o- human lung-derived epithelial cells (CFBE4lo-F508delCFTR-HRP), doxycycline-inducible
Experiment: Cell Surface Expression-Horse Radish Peroxidase (CSE-HRP) Assay;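 as to Maximum % activity (with co-corrector): co-corrector and positive control are both the same reference corrector at 2 µM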;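 as to Maximum % activity (without co-corrector): percent of the 2 µM on-plate positive control corrector response above DMSO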
Format: cell-based
Conditions: for Maximum % activity (with co-corrector): with co-corrector (2 μM); for Emax: read-out: Maximum % activity (without co-corrector)

[1] = test compound without co-corrector, read-out: EC50 (without co-corrector)
[2] = with co-corrector (2 μM of 3-[(2R,4R)-4-({[1-(2,2-difluoro-1,3-benzodioxol-5-yl)cyclopropyl]carbonyl}amino)-7-methoxy-3,4-dihydro-2H-chromen-2-yl]benzoic acid), read-out: EC50 (with co-corrector)
[3] = maximum at any tested concentration, normalized to on-plate positive control
[4] = without co-corrector, maximum at any tested concentration, normalized to on-plate positive control

T1 sequence (P13569 with tags, fused parts or gaps DEL508-508): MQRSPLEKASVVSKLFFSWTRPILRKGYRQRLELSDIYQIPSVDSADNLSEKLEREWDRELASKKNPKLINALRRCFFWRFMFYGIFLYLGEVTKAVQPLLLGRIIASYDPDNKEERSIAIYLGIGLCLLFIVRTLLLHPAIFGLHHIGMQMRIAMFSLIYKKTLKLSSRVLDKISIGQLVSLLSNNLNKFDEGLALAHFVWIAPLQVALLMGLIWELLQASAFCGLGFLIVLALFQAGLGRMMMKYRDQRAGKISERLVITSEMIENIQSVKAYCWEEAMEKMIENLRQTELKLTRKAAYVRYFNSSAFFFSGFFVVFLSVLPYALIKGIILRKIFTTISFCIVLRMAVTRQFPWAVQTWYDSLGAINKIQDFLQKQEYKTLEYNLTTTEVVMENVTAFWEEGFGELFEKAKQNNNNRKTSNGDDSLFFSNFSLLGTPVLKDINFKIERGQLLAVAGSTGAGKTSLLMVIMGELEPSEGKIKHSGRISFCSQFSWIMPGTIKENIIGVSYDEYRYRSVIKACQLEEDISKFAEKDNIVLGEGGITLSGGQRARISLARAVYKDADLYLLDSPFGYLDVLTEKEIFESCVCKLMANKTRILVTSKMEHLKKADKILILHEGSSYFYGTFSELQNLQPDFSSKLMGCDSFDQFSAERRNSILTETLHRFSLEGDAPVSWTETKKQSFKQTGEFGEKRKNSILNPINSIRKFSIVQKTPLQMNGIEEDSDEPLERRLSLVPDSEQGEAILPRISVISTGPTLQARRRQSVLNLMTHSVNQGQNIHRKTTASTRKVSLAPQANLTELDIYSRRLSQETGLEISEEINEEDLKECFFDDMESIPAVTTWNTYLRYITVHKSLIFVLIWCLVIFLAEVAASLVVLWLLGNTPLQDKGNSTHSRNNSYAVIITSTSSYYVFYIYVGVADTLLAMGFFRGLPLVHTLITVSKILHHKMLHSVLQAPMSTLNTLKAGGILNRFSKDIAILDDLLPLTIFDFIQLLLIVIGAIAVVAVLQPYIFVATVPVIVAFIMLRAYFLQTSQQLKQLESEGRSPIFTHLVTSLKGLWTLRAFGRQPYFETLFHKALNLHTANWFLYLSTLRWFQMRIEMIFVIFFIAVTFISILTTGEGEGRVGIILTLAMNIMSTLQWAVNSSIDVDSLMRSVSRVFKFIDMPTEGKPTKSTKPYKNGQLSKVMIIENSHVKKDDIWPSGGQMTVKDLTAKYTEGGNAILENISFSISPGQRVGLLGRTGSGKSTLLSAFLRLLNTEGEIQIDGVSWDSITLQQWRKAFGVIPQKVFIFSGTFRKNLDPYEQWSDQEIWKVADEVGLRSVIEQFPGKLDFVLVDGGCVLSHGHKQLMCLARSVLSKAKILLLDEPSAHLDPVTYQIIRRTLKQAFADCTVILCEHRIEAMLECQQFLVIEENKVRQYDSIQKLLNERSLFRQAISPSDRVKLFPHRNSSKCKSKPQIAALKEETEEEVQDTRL

Row | Compound | EC50 [1] [µM] | EC50 [2] [µM] | Maximum % activity (with co-corrector) [3] | Emax [4] [%] | EC50 [µM] | EC50 (EC50 (without co-corrector), test compound without co-corrector) [µM] | Emax [%]
1 | COc1ncc(-c2ccccc2F)cc1CN[C@H]1[C@H](C(C)(C)C)[C@@H](C(=O)O)N(C(=O)C2CCCCC2)[C@H]1c1ccccc1 [Example I-140] | < 1 | < 1 | +++ (≥350) | > 200 |  |  | 
2 | COc1ccc(C2(C(F)(F)F)CC2)cc1CN[C@H]1[C@H](C(C)(C)C)[C@@H](C(=O)O)N(C(=O)OC(C)C)[C@H]1c1ccccc1 [Example I-141] | 1 to 10 | < 1 | +++ (≥350) | > 200 |  |  | 
3 | COc1ncc(C(C)(C)C)cc1CN[C@H]1[C@H](C(C)(C)C)[C@@H](C(=O)O)N(C(=O)[C@@H]2CCCCO2)[C@H]1c1cccnc1N(C)C [Example I-142] | 1 to 10 | 1 to 10 | +++ (≥350) | > 200 |  |  | 
4 | COc1ccc(C(C)(C)C)cc1CN[C@H]1[C@H](C(C)(C)C)[C@@H](C(=O)O)N(C(=O)c2cnn3ccccc23)[C@H]1c1ccccc1 [Example I-143] | 1 to 10 | 1 to 10 | +++ (≥350) | < 100 |  |  | 
5 | CCc1c(C(=O)N2[C@H](C(=O)O)[C@@H](C(C)(C)C)[C@H](NCc3cc(C(C)(C)C)ccc3OC)[C@@H]2c2ccccc2)cnn1-c1ccc(OC)nn1 [Example I-144] | 1 to 10 | 1 to 10 | +++ (≥350) | 100 to 200 |  |  | 
6 | COc1ccc(C(C)(C)C)cc1CN[C@H]1[C@H](C(C)(C)C)[C@@H](C(=O)O)N(C(=O)c2cnn(C(C)(C)C)c2C(C)C)[C@H]1c1ccccc1 [Example I-145] | 1 to 10 | 1 to 10 | +++ (≥350) | 100 to 200 |  |  | 
7 | COc1ccc(C(C)(C)C)cc1CN[C@H]1[C@H](C(C)(C)C)[C@@H](C(=O)O)N(C(=O)c2c(C)nn(-c3ccccc3F)c2C)[C@H]1c1ccccc1 [Example I-146] | 1 to 10 | < 1 | +++ (≥350) | > 200 |  |  | 
8 | COc1ccc(C(C)(C)C)cc1CN[C@H]1[C@H](C(C)(C)C)[C@@H](C(=O)O)N(C(=O)C2(C)CCc3cc(C)ccc32)[C@H]1c1ccccc1 (some centres unmarked) [Example I-147] | 1 to 10 | 1 to 10 | +++ (≥350) | < 100 |  |  | 
9 | COc1ccc(C(C)(C)C)cc1CN[C@H]1[C@H](C(C)(C)C)[C@@H](C(=O)O)N(C(=O)CC2(O)CCC2)[C@H]1c1ccccc1 [Example I-148] | 1 to 10 | 1 to 10 | +++ (≥350) | > 200 |  |  | 
10 | COc1ccc(C(C)(C)C)cc1CN[C@H]1[C@H](C(C)(C)C)[C@@H](C(=O)O)N(C(=O)C2CCCCC2C(=O)N2CCC2)[C@H]1c1ccccc1 (some centres unmarked) [Example I-149] | 1 to 10 | 1 to 10 | +++ (≥350) | > 200 |  |  | 
11 | COc1ccc(C(C)(C)C)cc1CN[C@H]1[C@H](C(C)(C)C)[C@@H](C(=O)O)N(C(=O)Oc2ccccc2)[C@H]1c1ccccc1 [Example I-153] |  |  | +++ (≥350) |  | < 1 | 1 to 10 | > 200
12 | COc1ccc(C(C)(C)C)cc1CN[C@H]1[C@H](C(C)(C)C)[C@@H](C(=O)O)N(C(=O)OCc2ccccc2Cl)[C@H]1c1ccccc1 [Example I-154] | < 1 | < 1 | +++ (≥350) | 100 to 200 |  |  | 
13 | COc1ccc(C2(C#N)CCC2)cc1CN[C@H]1[C@H](C(C)(C)C)[C@@H](C(=O)O)N(C(=O)C2CCCCC2)[C@H]1c1ccccc1 [Example I-155] | 1 to 10 | 1 to 10 | +++ (≥350) | 100 to 200 |  |  | 
14 | COc1ccc(C(C)(C)C)cc1CN[C@H]1[C@H](C(C)(C)C)[C@@H](C(=O)O)N(C(=O)C(OC)C2CCCCC2)[C@H]1c1ccccc1 (some centres unmarked) [Example I-160] | < 1 | < 1 | +++ (≥350) | > 200 |  |  | 
15 | COc1ccc(C(F)(F)F)cc1CN[C@H]1[C@H](C(C)(C)C)[C@@H](C(=O)O)N(C(=O)C2C3CCCC32)[C@H]1c1ccccc1 (some centres unmarked) [Example I-161] | 1 to 10 | 1 to 10 | +++ (≥350) | > 200 |  |  | 
16 | COc1ccc(C(F)(F)F)cc1CN[C@H]1[C@H](C(C)(C)C)[C@@H](C(=O)O)N(C(=O)C2CC3CC3C2)[C@H]1c1ccccc1 (some centres unmarked) [Example I-162] | 1 to 10 | 1 to 10 | +++ (≥350) | 100 to 200 |  |  | 
17 | COc1ccc(C(F)(F)F)cc1CN[C@H]1[C@H](C(C)(C)C)[C@@H](C(=O)O)N(C(=O)C2CCC(C(F)(F)F)C2)[C@H]1c1ccccc1 (some centres unmarked) [Example I-163] | 1 to 10 | 1 to 10 | +++ (≥350) | 100 to 200 |  |  | 

Row | Compound | EC50 [1] [µM] | EC50 [2] [µM] | Maximum % activity (with co-corrector) [3] | Emax [4] [%] | EC50 [µM] | EC50 (EC50 (without co-corrector), test compound without co-corrector) [µM] | Emax [%]
18 | COc1ccc(C(F)(F)F)cc1CN[C@H]1[C@H](C(C)(C)C)[C@@H](C(=O)O)N(C(=O)C2CCC(C)(C)O2)[C@H]1c1ccccc1 (some centres unmarked) [Example I-164] | 1 to 10 | 1 to 10 | +++ (≥350) | > 200 |  |  | 
19 | COc1ccc(C(C)(C)C)cc1CN[C@H]1[C@H](C(C)(C)C)[C@@H](C(=O)O)N(C(=O)[C@H]2COc3ccccc3O2)[C@H]1c1ccccc1 [Example I-167] | 1 to 10 | < 1 | +++ (≥350) | > 200 |  |  | 
20 | COc1cnc(C2CCC2)cc1CN[C@H]1[C@H](C(C)(C)C)[C@@H](C(=O)O)N(C(=O)C2CCCCC2)[C@H]1c1ccccc1 [Example I-168] | 1 to 10 | 1 to 10 | +++ (≥350) | < 100 |  |  | 
21 | COc1ccc(C2(C(F)(F)F)CC2)nc1CN[C@H]1[C@H](C(C)(C)C)[C@@H](C(=O)O)N(C(=O)C2CCCCC2)[C@H]1c1ccccc1 [Example I-170] | 1 to 10 | 1 to 10 | +++ (≥350) | < 100 |  |  | 
22 | COc1ccc([Si](C)(C)C)cc1CN[C@H]1[C@H](C(C)(C)C)[C@@H](C(=O)O)N(C(=O)C2CCCCC2)[C@H]1c1ccccc1 [Example I-171] | < 1 | < 1 |  |  |  |  | 
23 | COc1ccc(C(C)(C)C)cc1CN[C@H]1[C@H](C(C)(C)C)[C@@H](C(=O)O)N(C(=O)C2CC3CCC(C2)O3)[C@H]1c1ccccc1 (some centres unmarked) [Example I-172] | 1 to 10 | 1 to 10 | +++ (≥350) | > 200 |  |  | 
24 | COc1ccc(C(C)(C)C)cc1CN[C@@H]1[C@@H](C(C)(C)C)[C@H](C(=O)O)N(C(=O)C2CCCCC2)[C@H]1c1ccccc1 [Example I-173] | 1 to 10 | 1 to 10 | ++ (≥150 and <350) | < 100 |  |  | 
25 | COc1ccc(C(F)(F)F)cc1CN[C@H]1[C@H](C(C)(C)OC)[C@@H](C(=O)O)N(C(=O)OC(C)C)[C@H]1c1ccccc1 [Example I-174] | 1 to 10 | 1 to 10 | +++ (≥350) | > 200 |  |  | 
26 | COc1ccc(C2(C(F)(F)F)CC2)cc1CN[C@H]1[C@H](C(C)(C)C)[C@@H](C(=O)O)N(C(=O)[C@@H]2CCCCO2)[C@H]1c1cccnc1N(C)C [Example I-176] | 1 to 10 | 1 to 10 | +++ (≥350) | > 200 |  |  | 
27 | COc1nc(C(C)(C)C)ccc1CN[C@H]1[C@H](C(C)(C)C)[C@@H](C(=O)O)N(C(=O)C2CCCCO2)[C@H]1c1ccccc1C(C)C (some centres unmarked) [Example I-177] | < 1 | < 1 | +++ (≥350) | > 200 |  |  | 
28 | COc1nc(C(C)(C)C)ccc1CN[C@H]1[C@H](C(C)(C)C)[C@@H](C(=O)O)N(C(=O)C2CCCC(F)(F)C2)[C@H]1c1ccccc1 (some centres unmarked) [Example I-180] | 1 to 10 | 1 to 10 | +++ (≥350) | > 200 |  |  | 
29 | COc1nc(C(C)(C)C)ccc1CN[C@H]1[C@H](C(C)(C)C)[C@@H](C(=O)O)N(C(=O)[C@H](C)c2ccccc2)[C@H]1c1ccccc1 [Example I-182] | 1 to 10 | 1 to 10 | +++ (≥350) | 100 to 200 |  |  | 
30 | COc1ncc(C(F)(F)F)cc1CN[C@H]1[C@H](C(C)(C)C)[C@@H](C(=O)O)N(C(=O)C2CCCC(F)(F)C2)[C@H]1c1ccccc1 (some centres unmarked) [Example I-183] | 1 to 10 | < 1 | +++ (≥350) | 100 to 200 |  |  | 
31 | COc1ccc(SC(F)(F)F)cc1CN[C@H]1[C@H](C(C)(C)C)[C@@H](C(=O)O)N(C(=O)C2CCCCC2)[C@H]1c1ccccc1 [Example I-184] | 1 to 10 | < 1 | +++ (≥350) | 100 to 200 |  |  | 
32 | COc1ccc(C(C)(C)C)cc1CN[C@H]1[C@H](C(C)(C)C)[C@@H](C(=O)O)N(C(=O)C2CCCCC2)[C@H]1c1ccccc1C(C)C [Example I-185] | < 1 | < 1 | +++ (≥350) | > 200 |  |  | 
33 | COc1ccc(C(C)(C)C)cc1CN[C@H]1[C@H](C(C)(C)C)[C@@H](C(=O)O)N(C(=O)C2CC3CC3C2)[C@H]1c1ccccc1 (some centres unmarked) [Example I-186] | 1 to 10 | 1 to 10 | +++ (≥350) | 100 to 200 |  |  | 
34 | COc1nc(C(C)(C)C)ccc1CN[C@H]1[C@H](C(C)(C)C)[C@@H](C(=O)O)N(C(=O)C2CCCCC2)[C@H]1c1ccccc1C(C)C [Example I-187] | < 1 | < 1 | +++ (≥350) | > 200 |  |  | 

— patent publication US20180099931A1 (AbbVie S.à.r.l., priority 2016, published 2018)
